SMILES strings stand for the structures. “And” between values parts separate entries of the source, which are not always exact repeats. Equal values may be shown once.

Series [1] can be described thus: Pharmacokinetics assay in cynomolgus monkeys. Type of series: in vivo. The following applies: male, cynomolgus monkey, plasma, po, intragastric, 15 mg/kg; for Vd/F: read-out: Apparent Distribution Volume Vz/F; for AUC: read-out: Area Under Curve AUC; for CL/F: read-out: Clearance CLz/F; for half-life: read-out: Half-Life T½ (converted); for MRT: read-out: Mean Residence Time MRT; for Cmax: read-out: Plasma Concentration Cmax. An excerpt: (§1) Test Example 4: Determination of APTT Value and Pharmacokinetic Assay in Cynomolgus Monkey
Cynomolgus monkeys were used as test animals. […] The pharmacokinetic behavior of the compounds of the present invention was studied and evaluated in the cynomolgus monkeys.
(§2) Six male cynomolgus monkeys (101, 102, 103, 201, 202 and 203) were purchased from Guangxi Xiongsen Primate Experimental Animal Breeding Development Co., Ltd.
(§3) Compounds of Example 5 and Example 108.
(§4) 4. Preparation of the Test Compounds
(§5) A certain amount of the test compound was weighed, and added with 2% by volume of DMSO, 78% by volume of PEG400 and 20% CMC-Na (0.5%) to prepare a 3.0 mg/mL colorless, clear and transparent solution.
(§6) After an overnight fast, cynomolgus monkeys were intragastrically administered at a dose of 15.0 mg/kg and an administration volume of 5.0 mL/kg.
7. Test Protocol of Pharmacokinetics Assay in Cynomolgus Monkeys
1.0 mL of blood was taken from the forelimb vein before administration and at 0.25, 0.5, 1, 2, 4, 6, 8, 12 and 24 hours after administration. The samples were stored in heparin anticoagulation tubes, and centrifuged for 10 minutes at 3500 rpm to separate the blood plasma. The plasma samples were stored at −80° C. The […] were fed 2 hours after administration.
The content of the test compound in the plasma of cynomolgus monkeys after intragastric administration of different concentrations of the drug was determined: 25 μL of cynomolgus monkey plasma at each time after administration was taken and added with 30 μL (100 ng/mL) of the internal standard solution of camptothecin and 225 μL of acetonitrile, shaken vertically for 5 minutes, and centrifuged for 10 minutes (4000 rpm). 1.0 μL of the supernatant was taken from the plasma samples for LC/MS/MS analysis.
7.2. Results of Pharmacokinetic Parameters in Cynomolgus Monkeys
Pharmacokinetic parameters of the compounds of the present invention in cynomolgus monkeys are shown below.

The nature of series [2]: Determination of APTT value in cynomolgus monkeys. Type of series: in vivo. The following applies: cynomolgus monkey, individual animals; for APTT (sec) 1 hour / APTT (sec) 2 hours / APTT (sec) 4 hours / APTT (sec) 8 hours / APTT (sec) 12 hours: 15.0 mg/kg intragastric; for APTT (sec) 1 hour: 1 hour after administration; for APTT (sec) 2 hours: 2 hours after administration; for APTT (sec) 4 hours: 4 hours after administration; for APTT (sec) 8 hours: 8 hours after administration; for APTT (sec) 12 hours: 12 hours after administration; for APTT (sec) Before Administration: baseline before 15.0 mg/kg intragastric dose. The procedure:
as §1, §2, §3, §4, §5, §6
6. Test Protocol for Determination of APTT Value in Cynomolgus Monkeys
6.1 Experimental Materials
Reagents: APTT reagent (Activated partial thromboplastin time assay kit, SIEMENS, Art. No. B4218-1), PEG-400 and CMC-Na;
Instrument: Coagulation instrument (SYSMEX, CA-500).
6.2 Collection and Processing of APTT Plasma Sample
Blood was taken before administration and at 1 hour, 2 hours, 4 hours, 8 hours and 12 hours after administration. About 1.8 mL of blood was taken through femoral vein puncture in each animal for each time. Anticoagulated sodium citrate was added. After the blood sample was collected, it was placed in a pre-labeled centrifuge tube, and the plasma was separated by centrifugation (centrifugation conditions: 3500 rpm, 10 minutes, 2-8° C.). The plasma was stored in a −80° C. refrigerator for APTT assay.
6.3 APTT Assay Results in Cynomolgus Monkeys

The next series has as its system human blood. In words: In vitro anticoagulant effect on human blood (APTT, CT2). The following applies: Table 2; concentration corresponding to 2 times the APTT of the blank control, human plasma. Summed up: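 Citrated human plasma (3.8% sodium citrate, 1:9) spiked with compound serially diluted in 100% DMSO (0.3–3000 μM dilution series; DMSO blank) and APTT measured on a coagulation analyser. CT2 is the compound concentration doubling blank APTT, from curve fitting.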

Series [3] can be described thus: Pharmacokinetics assay in rats after intragastrical administration. Type of series: in vivo, Sprague-Dawley (SD) rats. Conditions: both sexes, Sprague-Dawley, rat, plasma, po, SD rats, intragastric, 2 mg/kg; for Vd/F: read-out: Apparent Distribution Volume Vz/F; for AUC: read-out: Area Under Curve AUC; for CL/F: read-out: Clearance CLz/F; for half-life: read-out: Half-Life T½ (converted); for MRT: read-out: Mean Residence Time MRT; for Cmax: read-out: Plasma Concentration Cmax. An excerpt: Test Example 3. Pharmacokinetics Assay of the Compounds of the Present Invention
Rats were used as test animals. […] The pharmacokinetic behavior of the compounds of the present invention was studied and evaluated in rats.
56 healthy adult Sprague-Dawley (SD) rats, half male and half female, were purchased from SINO-BRITSH SIPPR/BK LAB. ANIMAL LTD., CO, with License No.: SCXK (Shanghai) 2008-0016.
2.3 Preparation of the Test Compounds
A certain amount of the test compound was weighed, and added with 5% by volume of DMSO, 5% by volume of Tween 80 and 90% normal saline to prepare a 0.2 mg/mL colorless, clear and transparent solution.
After an overnight fast, SD rats were intragastrically administered at a dose of 2.0 mg/kg and an administration volume of 10.0 mL/kg.
Blood (0.2 mL) was taken from the orbital sinus before administration and at 0.5, 1.0, 2.0, 4.0, 6.0, 8.0, 11.0 and 24.0 hours after administration. The samples were stored in heparin anticoagulation tubes, and centrifuged for 10 minutes at 3500 rpm at 4° C. to separate the blood plasma. The plasma samples were stored at −20° C. The rats were fed 2 hours after administration.
The content of the test compound in the plasma of rats after intragastric administration of different concentrations of the drug was determined: 25 μL of rat plasma at each time after administration was taken and added with 30 μL (100 ng/mL) of the internal standard solution of camptothecin and 200 μL of acetonitrile, shaken vertically for 5 minutes, and centrifuged for 10 minutes (4000 rpm). 3.0 μL of the supernatant was taken from the plasma samples for LC/MS/MS analysis.
4. Results of Pharmacokinetic Parameters
Pharmacokinetic parameters of the compounds of the present invention in rats are shown below.

The target of series [4] is Coagulation Factor XIa protease (Homo sapiens (Human), UniProt P03951). In words: Inhibition of Factor XIa detected by absorption photometry. Format: biochemical. Conditions: absorbance at 405 nm, 10 minutes at 37° C. Summed up: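 Read-out was absorbance at 405 nm after 10 min incubation at 37° C. Compound dilutions in 100% DMSO (200 to 0.002 μM) were combined with FXIa (2.5 μg/ml solution), then FXIa-specific chromogenic substrate (2 mM solution) was added; both are stock concentrations, not final.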
Coagulation Factor XIa protease, sequence (P03951 388-625): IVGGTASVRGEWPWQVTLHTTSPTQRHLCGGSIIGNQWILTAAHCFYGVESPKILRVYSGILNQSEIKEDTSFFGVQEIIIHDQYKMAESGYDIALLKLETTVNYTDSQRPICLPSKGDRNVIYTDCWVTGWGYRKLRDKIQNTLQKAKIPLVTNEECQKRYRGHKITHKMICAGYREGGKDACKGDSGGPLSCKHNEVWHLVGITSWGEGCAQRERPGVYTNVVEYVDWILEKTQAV
Coagulation Factor XIa protease, sequence (P03951 19-387 partner): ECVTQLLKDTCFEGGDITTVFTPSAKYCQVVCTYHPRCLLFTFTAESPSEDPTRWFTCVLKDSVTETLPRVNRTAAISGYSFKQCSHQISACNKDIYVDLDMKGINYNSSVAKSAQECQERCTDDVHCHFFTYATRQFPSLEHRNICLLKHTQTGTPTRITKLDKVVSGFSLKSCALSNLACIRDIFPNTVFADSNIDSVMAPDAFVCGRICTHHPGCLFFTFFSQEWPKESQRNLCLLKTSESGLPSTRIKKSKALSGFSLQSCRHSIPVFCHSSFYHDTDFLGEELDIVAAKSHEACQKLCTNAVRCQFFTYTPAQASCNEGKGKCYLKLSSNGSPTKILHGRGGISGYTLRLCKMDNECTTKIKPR

In the case of `COc1cn([C@@H](Cc2ccccc2)C(=O)Nc2ccc(C(=O)O)cc2)c(=O)cc1-c1cc(Cl)ccc1C(C)=O` [Example 5, (S)-4-(2-(4-(2-acetyl-5-chlorophenyl)-5-methoxy-2-oxopyridin-1(2H)-yl)-3-phenylpropanamido)benzoic acid], in series [1], the Vd/F was 30.4 ± 12.6 L/kg, the AUC worked out at 4950 ± 2880 ng·h/mL, the CL/F was 62 ± 32 mL/min/kg and the half-life is 5.86 ± 1.1 h. In series [1], the MRT turned out to be 9.63 ± 0.78 h and the Cmax was found to be 688 ± 560 ng/mL. For the same compound, in series [2], the “APTT (sec) 1 hour” value is 36.8 s and 25.9 s; the “APTT (sec) 2 hours” value was 33.3 s and 31.4 s and 27.2 s; the “APTT (sec) 4 hours” value is 28.3 s and 26.1 s and 22.2 s; the “APTT (sec) 8 hours” value was 27.3 s and 32.5 s and 24.8 s. Besides, in series [2], the “APTT (sec) 12 hours” value is 28.6 s and 23.8 s and 23.9 s; the “APTT (sec) Before Administration” value was 17.2 s and 17.3 s and 19.1 s. Further, the “CT2, concentration doubling APTT” value in the series on human blood turned out to be 2.0 µM. Besides, in series [3], the Vd/F stood at 4.98 ± 0.291 L/kg, the AUC was 518 ± 63 ng·h/mL, the CL/F was 65.1 ± 8.1 mL/min/kg and the half-life is 0.89 ± 0.08 h. Also, in series [3], the MRT was found to be 6.64 ± 1.77 h and the Cmax was found to be 244 ± 77 ng/mL.

For `CCC(=O)c1ccc(Cl)cc1-c1cc(=O)n([C@@H](Cc2ccccc2)C(=O)Nc2ccc(C(=O)O)cc2)cc1OC` [Example 9, (S)-4-(2-(4-(5-chloro-2-propionylphenyl)-5-methoxy-2-oxopyridin-1(2H)-yl)-3-phenylpropanamido)benzoic acid], the “CT2, concentration doubling APTT” value in the series on human blood came out at 2.4 µM. Moreover, in series [3], the Vd/F amounted to 31.5 ± 16.1 L/kg, the AUC was 701 ± 615 ng·h/mL, the CL/F came out at 69.8 ± 35.2 mL/min/kg and the half-life is 5.55 ± 1.79 h. For the same compound, in series [3], the MRT was determined as 6.78 ± 2.36 h and the Cmax was determined as 128 ± 50 ng/mL. In series [4], this compound returned an IC50 of 14 nM.

Consider `CNC(=O)c1ccc(NC(=O)[C@H](Cc2ccccc2)n2cc(OC)c(-c3cc(Cl)ccc3C(C)=O)cc2=O)cc1` [Example 13, (S)-4-(2-(4-(2-acetyl-5-chlorophenyl)-5-methoxy-2-oxopyridin-1(2H)-yl)-3-phenylpropanamido)-N-methylbenzamide], for which, in the series on human blood, the “CT2, concentration doubling APTT” value was determined as 6.0 µM. Also, in series [3], the Vd/F was determined as 26.9 ± 14 L/kg, the AUC was 241 ± 168 ng·h/mL, the CL/F came to 217 ± 151 mL/min/kg and the half-life is 1.67 ± 0.48 h. In series [3], the MRT was 2.36 ± 1.05 h and the Cmax is 119 ± 78 ng/mL. This compound gave an IC50 in series [4] of 46 nM.

For the compound `COc1cn([C@@H](Cc2ccccn2)C(=O)Nc2ccc(C(=O)O)cc2)c(=O)cc1-c1cc(Cl)ccc1C(C)=O` [Example 80, (S)-4-(2-(4-(2-acetyl-5-chlorophenyl)-5-methoxy-2-oxopyridin-1(2H)-yl)-3-(pyridin-2-yl)propanamido)benzoic acid], in the series on human blood, the “CT2, concentration doubling APTT” value stood at 7.9 µM. In addition, in series [3], the Vd/F worked out at 15.8 ± 2.29 L/kg, the AUC came to 158 ± 45 ng·h/mL, the CL/F worked out at 222 ± 55.7 mL/min/kg and the half-life was 0.85 ± 0.14 h. For the same compound, in series [3], the MRT was determined as 1.85 ± 0.76 h and the Cmax was 126 ± 50 ng/mL. Also, the IC50 in series [4] worked out at 40 nM.

As for `CCC(=O)c1ccc(Cl)cc1-c1cc(=O)n([C@@H](CCOC(C)(C)C)C(=O)Nc2ccc(C(=O)O)cc2)cc1OC` [Example 108, (S)-4-(4-(tert-butoxy)-2-(4-(5-chloro-2-propionylphenyl)-5-methoxy-2-oxopyridin-1(2H)-yl)butanamido)benzoic acid], in series [1], the Vd/F turned out to be 59.1 ± 26.2 L/kg, the AUC amounted to 2700 ± 1340 ng·h/mL, the CL/F is 120 ± 83 mL/min/kg and the half-life was 6.32 ± 1.47 h. For the same compound, in series [1], the MRT amounted to 8.81 ± 3.65 h and the Cmax was 295 ± 102 ng/mL. In series [2], the “APTT (sec) 1 hour” value is 26.3 s and 31.2 s and 31.9 s; the “APTT (sec) 2 hours” value was 27.5 s and 27.1 s and 28.5 s; the “APTT (sec) 4 hours” value was 28.7 s and 24.1 s and 28.6 s; the “APTT (sec) 8 hours” value was 26.9 s and 20.3 s and 26.3 s. Moreover, in series [2], the “APTT (sec) 12 hours” value is 27.3 s and 19 s and 21.5 s; the “APTT (sec) Before Administration” value was 17.5 s and 18.5 s and 17.6 s. Besides, in the series with human blood, the “CT2, concentration doubling APTT” value came out at 1.4 µM. In addition, in series [3], the Vd/F came out at 44.4 ± 3.45 L/kg, the AUC was found to be 452 ± 44 ng·h/mL, the CL/F turned out to be 74.3 ± 6.9 mL/min/kg and the half-life was 6.98 ± 1.22 h. Also, in series [3], the mean residence time MRT came out at 7.33 ± 0.48 h and the Cmax is 105 ± 23 ng/mL.

As for `COc1cn([C@@H](Cc2ccccc2)C(=O)Nc2ccc(C(N)=O)cc2)c(=O)cc1-c1cc(Cl)ccc1C(C)=O` [Example 11, (S)-4-(2-(4-(2-acetyl-5-chlorophenyl)-5-methoxy-2-oxopyridin-1(2H)-yl)-3-phenylpropanamido)benzamide], the “CT2, concentration doubling APTT” value in the series with human blood came out at 4.2 µM. Also, in series [3], the Vd/F came to 40.2 ± 18.6 L/kg, the AUC was determined as 125 ± 50 ng·h/mL, the CL/F is 299 ± 111 mL/min/kg and the half-life was 1.53 ± 0.33 h. Besides, in series [3], the MRT worked out at 2.12 ± 0.17 h and the Cmax came to 73.1 ± 32.3 ng/mL. It took 13 nM to reach half-maximal inhibition in series [4] (IC50).

For the origin of these results see patent US10633375B2, “Oxopicolinamide derivative, preparation method therefor and pharmaceutical use thereof” (Jiangsu Hengrui Medicine Co., Ltd., priority 2016, dated 2020).
